Patent US7282512B2, “Cycloalkyl ketoamides derivatives useful as cathepsin K inhibitors” (SmithKline Beecham Corporation, priority 2002, dated 2007)
Where two headings read alike, the source gives them in different places.

What was measured:
Format in all cases: biochemical
[1] = biological target: T1, human cathepsin K (Homo sapiens, UniProt P43235); test: cathepsin K inhibition assay, fluorogenic substrate Cbz-Phe-Arg-AMC, progress curve method; conditions: human recombinant enzyme, 10 μM substrate
T1 construct: The proform of cathepsin K was converted to mature cathepsin K by brief exposure to pH 4; made in house; host or cells: baculovirus; Trichoplusia ni High Five cells (virus raised in Sf-9)
T1 sequence (P43235 115-329): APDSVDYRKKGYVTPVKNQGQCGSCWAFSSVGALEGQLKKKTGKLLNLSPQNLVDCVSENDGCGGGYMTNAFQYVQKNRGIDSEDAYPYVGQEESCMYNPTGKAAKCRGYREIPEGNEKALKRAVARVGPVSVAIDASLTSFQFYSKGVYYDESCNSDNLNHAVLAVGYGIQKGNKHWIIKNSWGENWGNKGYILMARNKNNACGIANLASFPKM
Method: All assays for cathepsin K were carried out with human and rat recombinant enzyme. Assays for cathepsins S & V were also carried out with human recombinant enzyme. Assays for human cathepsins B, H, and L were carried out with enzyme, purchased from Athens Research and Technology, Inc., prepared from human liver tissue. […] A stock substrate solution of Cbz-Phe-Arg-AMC was prepared at a concentration of 50 mM in dimethyl sulfoxide. This substrate was diluted into the assay for a final substrate concentration of 10 μM in the rat cathepsin K, human cathepsin K, and human cathepsin B assays; a final substrate concentration of 5 μM in the human cathepsin L assay; and a final substrate concentration of 2 μM in the human cathepsin V assay.
(§1) All assays contained 10% dimethyl sulfoxide. […] All assays were conducted at 30° C. Product fluorescence (excitation at 360 nm; emission at 440 nm, (except cathepsin H which used excitation at 340 nm; emission at 420 nm)) was monitored with a PerSeptive Biosystems Cytofluor II fluorescence plate reader. Product progress curves were generated over 2.3 h monitoring the formation of 7-amino-4-methylcoumarin product (or β-naphthalamide for cathepsin H).
Two liters of Spodoptera frugiperda (Sf-9) cells (ATCC) were grown in Grace's Supplemented medium (Life Technologies) supplemented with 2 g/L glucose, 10% fetal bovine serum (HyClone) and 0.1% pluronic F-68 (Life Technologies). […] The cells continued to grow for 72 h post-infection, before the virus was harvested by centrifugation at 1400×g for 30 min.
One and one-half liters of Trichoplusia ni (T. ni) High Five (™) cells [JRH Biosciences, Woodland, Calif. […] Media were separated from cells at a rate of 1 L/min using the Centritech 100 (™) continuous-flow centrifuge (DuPont) operating at 200×g.
Protein Purification: Media (human and rat) were filtered through a Whatman 3 filter, and then loaded onto a 25 mL Poros HS II (26 mm×47 mm) cation exchange column equilibrated in 25 mM sodium acetate at pH 5.5 (equilibration buffer). The column was washed until the absorbance reached the baseline value, and then the protein was eluted with a linear gradient from 0-2 M sodium chloride in the equilibration buffer. Column fractions were analyzed by SDS-PAGE, N-terminal sequencing, and mass spectrometry. Fractions containing the proform of cathepsin K were pooled and frozen at −80° C. The proform was concentrated in an Amicon Centriprep 10 and fractionated with a Superdex 75 column (26 mm×600 mm, Pharmacia) equilibrated in 400 mM sodium chloride, 25 mM sodium acetate at pH 5.5.
Cathepsin K Activation: The proform of cathepsin K was converted to mature cathepsin K by brief exposure to pH 4 in the presence of 5 mM L-cysteine. Typically, 5 mM L-cysteine was added to 10 mL of approximately 1 mg/mL procathepsin K. One mL of this solution was diluted ten-fold into 450 mM sodium acetate at pH 4.0 containing 5 mM L-cysteine. This solution was reacted at 23° C. for 2 min before neutralization with 2 mL 1.8 M sodium acetate at pH 6.0. The neutralized sample was added to the remaining 9 mL of procathepsin K. The mixture was incubated at 4° C. for 2-3 days. The activated cathepsin K was chromatographed on a Poros HS II column as described above.
Potential inhibitors were evaluated using the progress curve method. Assays were carried out in the presence of variable concentrations of test compound. Reactions were initiated by addition of buffered solutions of inhibitor and substrate to enzyme. Data analysis was conducted according to one of two procedures depending on the appearance of the progress curves in the presence of inhibitors. […] Ki values were calculated from IC50 values using equation 2 assuming a competitive model.

[2] = biological target: human cathepsin H (Homo sapiens, UniProt P09668); test: cathepsin H inhibition assay, substrate L-Arg-β-naphthalamide; conditions: Table 2; enzyme from human liver tissue, 50 μM substrate; read-out: hCat H Ki
Method: All assays for cathepsin K were carried out with human and rat recombinant enzyme. Assays for cathepsins S & V were also carried out with human recombinant enzyme. Assays for human cathepsins B, H, and L were carried out with enzyme, purchased from Athens Research and Technology, Inc., prepared from human liver tissue. Standard assay conditions for the determination of kinetic constants used a fluorogenic peptide substrate, typically (5S,8S)-13-amino-5-benzyl-13-imino-3-methylene-N-(4-methyl-2-oxo-2H-chromen-7-yl)-6-oxo-1-phenyl-2-oxa-4,7,12-triazatridecane-8-carboxamide (Cbz-Phe-Arg-AMC), and were determined in 100 mM sodium acetate at pH 5.5 containing 10 mM dithiothreitol and 120 mM sodium chloride. A stock substrate solution of Cbz-Phe-Arg-AMC was prepared at a concentration of 50 mM in dimethyl sulfoxide. This substrate was diluted into the assay for a final substrate concentration of 10 μM in the rat cathepsin K, human cathepsin K, and human cathepsin B assays; a final substrate concentration of 5 μM in the human cathepsin L assay; and a final substrate concentration of 2 μM in the human cathepsin V assay. […]
All assays contained 10% dimethyl sulfoxide. […] Product fluorescence (excitation at 360 nm; emission at 440 nm, (except cathepsin H which used excitation at 340 nm; emission at 420 nm)) was monitored with a PerSeptive Biosystems Cytofluor II fluorescence plate reader. […]
(§2) Potential inhibitors were evaluated using the progress curve method. […] For those compounds whose progress curves were linear, the enzymatic activity (RATE) was plotted against the concentration of test compound, including inhibitor concentration of zero ([I]=0), and the IC50 determined from a fit of equation 1 to the data, RATE=Vmax/(1+([I]/IC50)) (1) where Vmax is the best fit estimate of the maximal enzymatic activity. Ki values were calculated from IC50 values using equation 2 assuming a competitive model.

[3] = biological target: human cathepsin V (Homo sapiens, UniProt O60911); test: cathepsin V inhibition assay, fluorogenic substrate Cbz-Phe-Arg-AMC; conditions: Table 2; human recombinant enzyme, 2 μM substrate; read-out: hCat V Ki
Method: All assays for cathepsin K were carried out with human and rat recombinant enzyme. Assays for cathepsins S & V were also carried out with human recombinant enzyme. Assays for human cathepsins B, H, and L were carried out with enzyme, purchased from Athens Research and Technology, Inc., prepared from human liver tissue. Standard assay conditions for the determination of kinetic constants used a fluorogenic peptide substrate, typically (5S,8S)-13-amino-5-benzyl-13-imino-3-methylene-N-(4-methyl-2-oxo-2H-chromen-7-yl)-6-oxo-1-phenyl-2-oxa-4,7,12-triazatridecane-8-carboxamide (Cbz-Phe-Arg-AMC), and were determined in 100 mM sodium acetate at pH 5.5 containing 10 mM dithiothreitol and 120 mM sodium chloride. A stock substrate solution of Cbz-Phe-Arg-AMC was prepared at a concentration of 50 mM in dimethyl sulfoxide. This substrate was diluted into the assay for a final substrate concentration of 10 μM in the rat cathepsin K, human cathepsin K, and human cathepsin B assays; a final substrate concentration of 5 μM in the human cathepsin L assay; and a final substrate concentration of 2 μM in the human cathepsin V assay.
as §1, §2

[4] = Table 1, pH 5.5, 30° C., read-out: hcatK Ki

human cathepsin V, sequence (O60911 114-334): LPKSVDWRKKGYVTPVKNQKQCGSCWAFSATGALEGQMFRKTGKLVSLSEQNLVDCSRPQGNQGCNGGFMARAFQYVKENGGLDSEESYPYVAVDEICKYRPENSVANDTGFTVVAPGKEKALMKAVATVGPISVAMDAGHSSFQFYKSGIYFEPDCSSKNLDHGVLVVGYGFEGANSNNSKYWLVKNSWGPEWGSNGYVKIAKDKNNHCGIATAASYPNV
human cathepsin H, sequence (P09668 116-335 limits assumed, other chains not shown): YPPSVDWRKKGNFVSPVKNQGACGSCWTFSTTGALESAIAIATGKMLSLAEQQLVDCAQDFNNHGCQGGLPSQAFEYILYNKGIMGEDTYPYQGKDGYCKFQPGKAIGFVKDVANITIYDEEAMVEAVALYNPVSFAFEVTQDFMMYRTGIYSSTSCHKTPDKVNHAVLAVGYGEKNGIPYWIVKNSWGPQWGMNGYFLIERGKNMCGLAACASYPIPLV

CCCC[C@H](NC(=O)OC1(Cc2ccccc2)CCCC1)C(=O)C(=O)N[C@@H](C)C(=O)OCc1ccccc1 [Example 3, Benzyl (2S)-2-{[(3S)-3-({[(1-benzylcyclopentyl)oxy]carbonyl}amino)-2-oxoheptanoyl]amino}propanoate]
Ki [1, 4]: 10 to 100 nM
Ki ([1]; Table 2, read-out: hCat K Ki): 10 to 100 nM
Ki [2]: > 1000 nM
Ki [3]: > 1000 nM

CCCC[C@H](NC(=O)OCC1(Cc2ccc(F)cc2)CCC1)C(=O)C(=O)Nc1n[nH]c2cc(Cl)ccc12 [Example 15, [1-(4-fluorobenzyl)cyclobutyl]methyl(1S)-1-[[(6-chloro-1H-indazol-3-yl)amino](oxo)acetyl]pentylcarbamate]
Ki [1, 4]: < 1 nM
Ki ([1]; Table 2, read-out: hCat K Ki): < 1 nM
Ki [2]: 100 to 1000 nM
Ki [3]: 1 to 10 nM

CCCC[C@H](NC(=O)OC1(c2nc3ccccc3s2)CCCC1)C(=O)C(=O)Nc1ccn[nH]1 [Example 17, 1-(1,3-Benzothiazol-2-yl)cyclopentyl(1S)-1-[oxo(1H-pyrazol-3-ylamino)acetyl]pentylcarbamate]
Ki [1, 4]: 1 to 10 nM
Ki ([1]; Table 2, read-out: hCat K Ki): 1 to 10 nM
Ki [2]: > 1000 nM
Ki [3]: 10 to 100 nM
